Data as given in ChEMBL document CHEMBL4118101 (Bioorg Med Chem, 2018).
Values after ≈ are worked out from the molar mass of the structure shown. Active and inactive are the calls of the source. The calls are words filed in the database; no cut-off is given here.

Columns and labels:
Candida albicans [1] = experiment: Antifungal activity against Candida albicans ATCC 10231 measured after 48 hrs in presence of 10% FBS by CLSI M27-A3 protocol based method; type: functional; details: Candida albicans, ATCC 10231, 48 h
Nakaseomyces glabratus [2] = experiment: Antifungal activity against Candida glabrata ATCC 2001 measured after 48 hrs by CLSI M27-A3 protocol based method; type: functional, CBS 138; details: Nakaseomyces glabratus, CBS 138, 48 h; read-out: MIC
Candida albicans [3] = experiment: Antifungal activity against fluconazole/ITC-susceptible Candida albicans ATCC MYA-2876 measured after 48 hrs by CLSI M27-A3 protocol based method; type: functional; details: Candida albicans, ATCC MYA-2876, 48 h
Candida albicans [4] = experiment: Antifungal activity against fluconazole/ITC-susceptible Candida albicans ATCC MYA-2310 measured after 48 hrs by CLSI M27-A3 protocol based method; type: functional; details: Candida albicans, ATCC MYA-2310, 48 h; read-out: MIC
Candida parapsilosis [5] = experiment: Antifungal activity against Candida parapsilosis ATCC 22019 measured after 48 hrs by CLSI M27-A3 protocol based method; type: functional; details: Lodderomyces parapsilosis, ATCC 22019, 48 h
Candida albicans [6] = experiment: Antifungal activity against fluconazole/ITC-resistant Candida albicans ATCC 90819 measured after 48 hrs by CLSI M27-A3 protocol based method; type: functional; details: Candida albicans, ATCC 90819, 48 h; read-out: MIC
Pichia kudriavzevii = experiment: Antifungal activity against Candida krusei ATCC 6258 measured after 48 hrs by CLSI M27-A3 protocol based method; type: functional; details: Pichia kudriavzevii, ATCC 6258, 48 h
Aspergillus flavus = experiment: Antifungal activity against Aspergillus flavus ATCC MYA-3631 measured after 48 hrs by CLSI M38-A2 protocol based method; type: functional; details: ATCC MYA-3631, 48 h
Cryptococcus neoformans [7] = experiment: Antifungal activity against Cryptococcus neoformans isolate CN3 measured after 48 hrs by CLSI M27-A3 protocol based method; type: functional; details: Cryptococcus neoformans, isolate CN3, 48 h; read-out: MIC
Nakaseomyces glabratus [8] = experiment: Antifungal activity against Candida glabrata isolate CG3 measured after 48 hrs by CLSI M27-A3 protocol based method; type: functional; details: Nakaseomyces glabratus, 48 h; read-out: MIC
Aspergillus nidulans = experiment: Antifungal activity against Aspergillus nidulans ATCC 38163 measured after 48 hrs by CLSI M38-A2 protocol based method; type: functional; details: ATCC 38163, 48 h
Candida albicans [9] = experiment: Antifungal activity against Candida albicans ATCC 10231 measured after 48 hrs by CLSI M27-A3 protocol based method; type: functional; details: ATCC 10231, 48 h
Candida albicans [10] = experiment: Antifungal activity against Candida albicans ATCC 64124 measured after 48 hrs by CLSI M27-A3 protocol based method; type: functional; details: Candida albicans, ATCC 64124, 48 h; read-out: MIC
Cryptococcus neoformans [11] = experiment: Antifungal activity against Cryptococcus neoformans isolate CN1 measured after 48 hrs by CLSI M27-A3 protocol based method; type: functional; details: isolate CN1, 48 h
Aspergillus terreus = experiment: Antifungal activity against Aspergillus terreus ATCC MYA-3633 measured after 48 hrs by CLSI M38-A2 protocol based method; type: functional; details: ATCC MYA-3633, 48 h
Cryptococcus neoformans [12] = experiment: Antifungal activity against Cryptococcus neoformans isolate CN2 measured after 48 hrs by CLSI M27-A3 protocol based method; type: functional; details: Cryptococcus neoformans, isolate CN2, 48 h; read-out: MIC
Nakaseomyces glabratus [13] = experiment: Antifungal activity against Candida glabrata isolate CG1 measured after 48 hrs by CLSI M27-A3 protocol based method; type: functional; details: Nakaseomyces glabratus, 48 h; read-out: MIC
Nakaseomyces glabratus [14] = experiment: Antifungal activity against Candida glabrata isolate CG2 measured after 48 hrs by CLSI M27-A3 protocol based method; type: functional; details: Nakaseomyces glabratus, isolate CG2, 48 h; read-out: MIC
Candida parapsilosis [15] = experiment: Antifungal activity against Candida parapsilosis isolate CP2 measured after 48 hrs by CLSI M27-A3 protocol based method; type: functional; details: Lodderomyces parapsilosis, isolate CP2, 48 h
Candida albicans [16] = experiment: Antifungal activity against fluconazole/ITC-resistant Candida albicans ATCC MYA-1003 measured after 48 hrs by CLSI M27-A3 protocol based method; type: functional; details: Candida albicans, ATCC MYA-1003, 48 h; read-out: MIC
Candida albicans [17] = experiment: Antifungal activity against fluconazole/ITC-resistant Candida albicans ATCC MYA-1237 measured after 48 hrs by CLSI M27-A3 protocol based method; type: functional; details: Candida albicans, ATCC MYA-1237, 48 h; read-out: MIC
Candida parapsilosis [18] = experiment: Antifungal activity against Candida parapsilosis isolate CP1 measured after 48 hrs by CLSI M27-A3 protocol based method; type: functional; details: Lodderomyces parapsilosis, isolate CP1, 48 h
Candida parapsilosis [19] = experiment: Antifungal activity against Candida parapsilosis isolate CP3 measured after 48 hrs by CLSI M27-A3 protocol based method; type: functional; details: Lodderomyces parapsilosis, isolate CP3, 48 h
Candida albicans [20] = experiment: Induction of membrane permeabilization in Candida albicans ATCC 10231 assessed as membrane disruption at 4 times MIC after 1 hr by propidium iodide staining based fluorescence microscopy; type: functional, organism-based

Compound `C[C@@H]1[C@H](O)[C@@H](C)/C=C/C=C/C=C/C=C/C=C/C=C/C=C/[C@H](O[C@@H]2O[C@H](C)[C@@H](O)[C@H](N)[C@@H]2O)C[C@@H]2O[C@](O)(C[C@@H](O)C[C@@H](O)[C@H](O)CC[C@@H](O)C[C@@H](O)CC(=O)O[C@H]1C)C[C@H](O)[C@H]2C(=O)O` [AMPHOTERICIN B] has an MIC (Candida albicans [1]) of 7.8 µg/mL, an MIC (Nakaseomyces glabratus [2]) of 2.1 µM (≈ 1.94 µg/mL) and an MIC (Candida albicans [3]) of 2.1 µM (≈ 1.94 µg/mL). It also gave an MIC (Candida albicans [4]) of 2.1 µM (≈ 1.94 µg/mL), an MIC (Candida parapsilosis [5]) of 2.1 µM (≈ 1.94 µg/mL) and an MIC (Candida albicans [6]) of 1.1 µM (≈ 1.02 µg/mL).
`OC(CNC1CCCCCCC1)(Cn1cncn1)c1ccc(F)cc1F` (stereo not given) showed an MIC (Pichia kudriavzevii) of 85.8 µM (≈ 31.3 µg/mL), an MIC (Aspergillus flavus) of 85.8 µM (≈ 31.3 µg/mL) and an MIC (Cryptococcus neoformans [7]) of 42.8 µM (≈ 15.6 µg/mL). The MIC (Nakaseomyces glabratus [8]) was 85.8 µM (≈ 31.3 µg/mL), the MIC (Aspergillus nidulans) was over 85.8 µM and the MIC (Nakaseomyces glabratus [2]) was 85.8 µM (≈ 31.3 µg/mL). It also gave an MIC (Candida albicans [9]) of 85.8 µM (≈ 31.3 µg/mL), an MIC (Candida albicans [3]) of over 85.8 µM and an MIC (Candida albicans [10]) of 85.8 µM (≈ 31.3 µg/mL). The MIC (Cryptococcus neoformans [11]) was 21.4 µM (≈ 7.8 µg/mL), the MIC (Aspergillus terreus) was over 85.8 µM and the MIC (Cryptococcus neoformans [12]) was over 85.8 µM. It also gave an MIC (Nakaseomyces glabratus [13]) of 85.8 µM (≈ 31.3 µg/mL), an MIC (Nakaseomyces glabratus [14]) of 42.8 µM (≈ 15.6 µg/mL) and an MIC (Candida parapsilosis [15]) of 2.7 µM (≈ 0.984 µg/mL). It also gave an MIC (Candida albicans [4]) of 10.7 to 85.8 µM (≈ 3.9 to 31.3 µg/mL), an MIC (Candida parapsilosis [5]) of 10.7 µM (≈ 3.9 µg/mL) and an MIC (Candida albicans [16]) of over 85.8 µM. The MIC (Candida albicans [6]) was 85.8 µM (≈ 31.3 µg/mL), the MIC (Candida albicans [17]) was 85.8 µM (≈ 31.3 µg/mL) and the MIC (Candida parapsilosis [18]) was 2.7 µM (≈ 0.984 µg/mL). For the same compound, the MIC (Candida parapsilosis [19]) was 5.4 µM (≈ 1.97 µg/mL).
With `CCCCCCCCN(CCCCCCCC)CC(O)(Cn1cncn1)c1ccc(F)cc1F` (stereo not given) the MIC (Pichia kudriavzevii) was 65.4 µM (≈ 31.3 µg/mL), the MIC (Aspergillus flavus) was over 65.4 µM and the MIC (Cryptococcus neoformans [7]) was over 65.4 µM. For the same compound, the MIC (Nakaseomyces glabratus [8]) was 65.4 µM (≈ 31.3 µg/mL), the MIC (Aspergillus nidulans) was 32.7 µM (≈ 15.7 µg/mL) and the MIC (Nakaseomyces glabratus [2]) was 65.4 µM (≈ 31.3 µg/mL). For the same compound, the MIC (Candida albicans [9]) was 65.4 µM (≈ 31.3 µg/mL), the MIC (Candida albicans [3]) was 65.4 µM (≈ 31.3 µg/mL) and the MIC (Candida albicans [10]) was over 65.4 µM. It also gave an MIC (Cryptococcus neoformans [11]) of over 65.4 µM, an MIC (Aspergillus terreus) of over 65.4 µM and an MIC (Cryptococcus neoformans [12]) of over 65.4 µM. The MIC (Nakaseomyces glabratus [13]) was 32.6 µM (≈ 15.6 µg/mL), the MIC (Nakaseomyces glabratus [14]) was 16.3 µM (≈ 7.8 µg/mL) and the MIC (Candida parapsilosis [15]) was 4.1 µM (≈ 1.96 µg/mL). The MIC (Candida albicans [4]) was over 65.4 µM, the MIC (Candida parapsilosis [5]) was 2 µM (≈ 0.957 µg/mL) and the MIC (Candida albicans [16]) was over 65.4 µM. The MIC (Candida albicans [6]) was 65.4 µM (≈ 31.3 µg/mL), the MIC (Candida albicans [17]) was 65.4 µM (≈ 31.3 µg/mL) and the MIC (Candida parapsilosis [18]) was 2 µM (≈ 0.957 µg/mL). It also gave an MIC (Candida parapsilosis [19]) of 4.1 µM (≈ 1.96 µg/mL).
`CCCCCOCCCCCCNCC(O)(Cn1cncn1)c1ccc(F)cc1F` (stereo not given) was tested, and the MIC (Pichia kudriavzevii) was 4.6 µM (≈ 1.95 µg/mL), the MIC (Aspergillus flavus) was over 73.7 µM and the MIC (Cryptococcus neoformans [7]) was 4.6 µM (≈ 1.95 µg/mL). For the same compound, the MIC (Nakaseomyces glabratus [8]) was 73.7 µM (≈ 31.3 µg/mL), the MIC (Aspergillus nidulans) was 18.4 µM (≈ 7.81 µg/mL) and the MIC (Nakaseomyces glabratus [2]) was 9.2 to 36.7 µM (≈ 3.91 to 15.6 µg/mL). The MIC (Candida albicans [9]) was 9.2 µM (≈ 3.91 µg/mL), the MIC (Candida albicans [3]) was 73.7 µM (≈ 31.3 µg/mL) and the MIC (Candida albicans [10]) was over 73.7 µM. It also gave an MIC (Cryptococcus neoformans [11]) of 1.1 µM (≈ 0.467 µg/mL), an MIC (Aspergillus terreus) of 73.7 µM (≈ 31.3 µg/mL) and an MIC (Cryptococcus neoformans [12]) of 4.6 µM (≈ 1.95 µg/mL). It also gave an MIC (Nakaseomyces glabratus [13]) of 36.7 µM (≈ 15.6 µg/mL), an MIC (Nakaseomyces glabratus [14]) of 4.6 µM (≈ 1.95 µg/mL) and an MIC (Candida parapsilosis [15]) of 0.28 µM (≈ 0.119 µg/mL). The MIC (Candida albicans [4]) was 36.7 µM (≈ 15.6 µg/mL), the MIC (Candida parapsilosis [5]) was 0.57 µM (≈ 0.242 µg/mL) and the MIC (Candida albicans [16]) was 18.4 µM (≈ 7.81 µg/mL). It also gave an MIC (Candida albicans [6]) of 9.2 µM (≈ 3.91 µg/mL), an MIC (Candida albicans [17]) of 9.2 µM (≈ 3.91 µg/mL) and an MIC (Candida parapsilosis [18]) of 0.28 µM (≈ 0.119 µg/mL). It also gave an MIC (Candida parapsilosis [19]) of 0.28 µM (≈ 0.119 µg/mL).
Compound `CCCCCCN(CCCCCC)CC(O)(Cn1cncn1)c1ccc(F)cc1F` (stereo not given) has an MIC (Pichia kudriavzevii) of over 74.1 µM, an MIC (Aspergillus flavus) of over 74.1 µM and an MIC (Cryptococcus neoformans [7]) of 37.1 µM (≈ 15.7 µg/mL). The MIC (Nakaseomyces glabratus [8]) was over 74.1 µM, the MIC (Aspergillus nidulans) was over 74.1 µM and the MIC (Nakaseomyces glabratus [2]) was over 74.1 µM. It also gave an MIC (Candida albicans [9]) of over 74.1 µM, an MIC (Candida albicans [3]) of over 74.1 µM and an MIC (Candida albicans [10]) of over 74.1 µM. For the same compound, the MIC (Cryptococcus neoformans [11]) was over 74.1 µM, the MIC (Aspergillus terreus) was over 74.1 µM and the MIC (Cryptococcus neoformans [12]) was over 74.1 µM. The MIC (Nakaseomyces glabratus [13]) was over 74.1 µM, the MIC (Nakaseomyces glabratus [14]) was over 74.1 µM and the MIC (Candida parapsilosis [15]) was over 74.1 µM. It also gave an MIC (Candida albicans [4]) of over 74.1 µM, an MIC (Candida parapsilosis [5]) of 74.1 µM (≈ 31.3 µg/mL) and an MIC (Candida albicans [16]) of over 74.1 µM. The MIC (Candida albicans [6]) was over 74.1 µM, the MIC (Candida albicans [17]) was over 74.1 µM and the MIC (Candida parapsilosis [18]) was over 74.1 µM. The MIC (Candida parapsilosis [19]) was over 74.1 µM.
With `CCCCCCCCCCCCCCSC[C@H]1O[C@H](O[C@H]2[C@H](O)[C@@H](O[C@H]3O[C@H](CO)[C@@H](O)[C@H](N)[C@H]3O)[C@H](N)C[C@@H]2N)[C@H](N)[C@@H](O)[C@@H]1O` the Activity (Candida albicans [20]) was “Active”.
